The record followed here is EP4737457A1, “POLYSUBSTITUTED MACROCYCLIC COMPOUND, AND PREPARATION METHOD THEREFOR AND USE THEREOF” (Shenzhen Salubris Pharmaceuticals Co., Ltd., priority 2023, dated 2025).

One data set concerns the target Human Factor XIa (Homo sapiens, UniProt P03951). The data set is described as follows: Inhibition of human coagulation Factor XIa by absorbance method (S-2366 substrate, 405 nm). The class given is biochemical. The note with it: incubated at 37 °C for 20 minutes; substrate 800 µM; read-out: Recombinant Enzyme FXIa IC50. The protocol: • Enzyme: Human Factor XIa (ENZYME […], Cat. No. HFXIa 1111a) • Substrate: S-2366™ (CHROMOGENIX, Cat. No. 82109039) • Buffer: 145 mM NaCl, 5 mM KCl, 1 mg/mL PEG 8000, 30 mM HEPES, pH 7.4.
Test compounds dissolved in 100% DMSO at 10 mM were diluted with 100% DMSO to concentrations of 1000 µM, 200 µM, 40 µM, 8 µM, 1.6 µM, 0.32 µM, 0.064 µM, 0.0128 µM, 0.00256 µM, and […]. Then 98 µL of FXIa enzyme solution (77.7 ng/mL) was added to each well of a 96-well plate, with 98 µL of buffer added to blank wells instead. Then, 2 µL of compound at different concentrations was added; DMSO was used instead for blank and control wells. The plate was mixed using a plate shaker and incubated at 37 °C for 20 minutes.
Finally, 100 µL of substrate (800 µM) was added to each well, and the absorbance was measured at 405 nm.
Curve fitting was performed using GraphPad Prism software to calculate the IC50 values.

A further data set has as its system Pooled human plasma. As to the kind of experiment: In vitro anticoagulant effect in human plasma (aPTT, EC1.5x). The class given is biochemical. The following applies: 37 °C for 10 minutes. On the procedure:
aPTT (Lot 220106600), Calcium Chloride (Lot 210305600), Needle Rinse Solution (Lot 211101300): produced by Shenzhen Mindray Bio-Medical Electronics Co., Ltd. Pooled human plasma: collected from healthy individuals using disposable venous blood collection tubes (Liuyang Sanli Medical Technology Development Co., Ltd., Lot 211108, sodium citrate 9:1). Blood was collected, centrifuged at room temperature at 3000 rpm for 10 minutes, and the supernatant was collected and stored for use (Lot 20220606).
Test compounds dissolved in 100% DMSO at 10 mM were diluted with 100% DMSO to concentrations of 0.29 µM, 0.59 µM, 1.17 µM, 2.34 µM, 4.69 µM, 9.38 µM, 18.75 µM, and 37.50 µM. Then 99 µL of pooled human plasma was added to each 1.5 mL centrifuge tube, followed by the addition of 1 µL of compound at different concentrations; 1 µL of DMSO was added to the blank control. The tubes were mixed by repeated manual inversion, centrifuged briefly using a mini centrifuge to collect the samples, and then incubated in a thermostatic water bath at 37 °C for 10 minutes with mixing. The aPTT was measured using a fully automated coagulation analyzer according to the preset program.
Curve fitting was performed using GraphPad Prism software to calculate EC1.5x.

Data set [1] can be described thus: Pharmacokinetic experiment in rats (iv and PO). The note with it: male, Sprague-Dawley (SD), rat, plasma, 5 mg/kg.
Text: Polyethylene glycol 400 (PEG-400, Lot GORKREUT, Shaen Chemical Technology (Shanghai) Co., Ltd.), DMSO (Lot 20200319, Guangdong Guanghua Sci-Tech Co., Ltd.), normal saline (Lot C20052604, Jiangxi Kelun Pharmaceutical Co., Ltd.). LC-MS instrument (Thermo Fisher Ultimate 3000 UPLC, TSQ QUANTUM ULTRA triple quadrupole mass spectrometer, AB SCIEX 5500 QTARP).
SD rats: Male, 180-250 g, purchased from Guangdong Vital River Laboratory Animal Technology Co., Ltd.
The test compound powder was accurately weighed, completely dissolved in DMSO, then PEG-400 was added. The mixture was vortexed and sonicated to mix, followed by the addition of normal saline. The mixture was vortexed and sonicated again to achieve a final concentration of 0.5 mg/mL (DMSO:PEG-400:NS = 5:60:35, V/V/V). The dosing volume was 10 mL/kg for oral gavage and 0.5 mL/kg for intravenous administration.
After intravenous or oral administration to rats, 200 µL of venous blood was collected at 5 min (not collected for oral group), 15 min, 30 min, 1 h, 2 h, 5 h, 7 h, and 24 h into heparinized EP tubes. The blood was centrifuged at 12,000 rpm for 2 minutes, and the plasma was collected and stored at -80 °C until analysis.
A precise amount of the test compound was weighed and dissolved in DMSO to 1 mg/mL as a stock solution. An appropriate volume of the compound stock solution was accurately pipetted and diluted with acetonitrile to prepare standard series solutions. 20 µL of each standard series solution was accurately pipetted and added to 180 µL of blank plasma, vortexed to mix, to prepare plasma samples equivalent to plasma concentrations of 1 ng/mL, 3 ng/mL, 10 ng/mL, 30 ng/mL, 100 ng/mL, 300 ng/mL, 1000 ng/mL, 3000 ng/mL, and 5000 ng/mL. Each concentration was analyzed in duplicate to establish the standard curve. 20 µL of plasma sample was taken, and 200 µL of an internal standard (propranolol, 5 ng/mL) in acetonitrile solution was added. The mixture was vortexed and centrifuged at 4000 rpm for 5 minutes. The supernatant was taken for LC-MS analysis. The LC-MS detection conditions were as follows: Chromatographic Column: Waters ACQUITY™ PREMIER HSS T3, 50*2.1 mm, 1.8 µm.
Mobile phase A: water (0.1% formic acid), mobile phase B: acetonitrile, flow rate: 0.5 mL/min, gradient elution: see Table 2 below.
After determining the plasma drug concentration by LC-MS, the pharmacokinetic parameters following administration to rats were calculated using the non-compartmental model in WinNonlin 6.1 software.

pIC50: −log10 of the molar value.

Human Factor XIa, sequence (P03951 388-625 limits assumed): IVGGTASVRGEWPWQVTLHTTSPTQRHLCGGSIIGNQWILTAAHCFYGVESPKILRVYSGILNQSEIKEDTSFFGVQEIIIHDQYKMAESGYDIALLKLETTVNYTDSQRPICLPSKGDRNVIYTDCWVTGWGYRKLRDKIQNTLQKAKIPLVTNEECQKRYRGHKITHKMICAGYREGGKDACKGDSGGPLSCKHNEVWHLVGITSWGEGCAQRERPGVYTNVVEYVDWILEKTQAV
Human Factor XIa, sequence (P03951 19-387 partner limits assumed): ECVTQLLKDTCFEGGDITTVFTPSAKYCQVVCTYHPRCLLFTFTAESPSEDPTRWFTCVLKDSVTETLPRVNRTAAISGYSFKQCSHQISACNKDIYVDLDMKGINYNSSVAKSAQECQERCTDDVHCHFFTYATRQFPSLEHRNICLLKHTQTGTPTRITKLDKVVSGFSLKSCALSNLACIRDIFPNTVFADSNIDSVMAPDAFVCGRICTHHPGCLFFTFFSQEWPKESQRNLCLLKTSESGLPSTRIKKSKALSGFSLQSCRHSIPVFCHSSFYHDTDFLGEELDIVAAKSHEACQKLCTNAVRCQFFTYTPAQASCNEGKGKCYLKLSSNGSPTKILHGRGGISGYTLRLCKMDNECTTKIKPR

In the case of `[2H]C([2H])([2H])n1ncc2c1-c1cc(F)c(F)c(c1)[C@@H](n1ncc(-c3cc(Cl)ccc3-n3cc(C(F)(F)F)nn3)cc1=O)CCC[C@@H](C)C(=O)N2` [Compound 5, (3S,7R)-3-(4-(5-chloro-2-(4-(trifluoromethyl)-1H-1,2,3-triazol-1-yl)phenyl) -6-oxopyridazin-1(6H)-yl)-2^4,2^5-difluoro-7-methyl-1^1-(methyl-d3)-1^1H-9-aza-1(5,4)-pyrazola-2(1,3)-benzenacyclononaphan-8-one], on Human Factor XIa, the pIC50 (commonly the negative decadic logarithm of the IC50, by convention in mol/L) is 9.05. The “Human Plasma APTT 1.5x” value in the data set on Pooled human plasma is given as 0.83 µM. As for `C[C@@H]1CCC[C@H](n2cnc(-c3c(-n4cc(C(F)(F)F)nn4)ccc(Cl)c3F)cc2=O)c2cc(cc(F)c2F)-c2c(cnn2C(F)F)NC1=O` [Compound 11, (3S,7R)-3-(4-(3-chloro-2-fluoro-6-(4-(trifluoromethyl)-1H-1,2,3-triazol-1-yl)phenyl)-6-oxopyrimidin-1(6H)-yl)-2^4,2^5-difluoro-7-methyl-1^1-difluoromethyl-1^1H-9-aza-1 (5,4)-pyrazola-2(1,3)-benzenacyclononaphan-8-one], at Human Factor XIa, the negative logarithm of the IC50 (pIC50) was 9.54. For the same molecule, the “Human Plasma APTT 1.5x” value in the data set on Pooled human plasma is listed as 0.23 µM. Also, the bioavailability – broadly, dose-corrected exposure relative to a reference, in per cent – in data set [1] was determined as 21.6%. With `C[C@@H]1CCC[C@H](n2cnc(-c3c(-n4cc(Cl)nn4)ccc(Cl)c3F)cc2=O)c2cc(cc(F)c2F)-c2c(cnn2C(F)F)NC1=O` [Compound 13, (3S,7R)-3-(4-(3-chloro-6-(4-chloro-1H-1,2,3-triazol-1-yl)-2-fluorophenyl)-6-oxopyrimidin-1(6H)-yl)-2^4,2^5-difluoro-7-methyl-1^1-difluoromethyl-1^1H-9-aza-1(5,4)-pyraz ola-2(1,3)-benzenacyclononaphan-8-one], on Human Factor XIa, the pIC50 was 9.40. For `[2H]C([2H])([2H])n1ncc2c1-c1cc(F)c(F)c(c1)[C@@H](n1ccc(-c3cc(Cl)ccc3-n3cc(C(F)(F)F)nn3)cc1=O)CCC[C@@H](C)C(=O)N2` [Compound 7, (3S,7R)-3-(4-(5-chloro-2-(4-(trifluoromethyl)-1H-1,2,3-triazol-1-yl)phenyl) -2-oxopyridin-1(2H)-yl)-2^4,2^5-difluoro-7-methyl-1^1-(methyl-d3)-1^1H-9-aza-1(5,4)-pyrazola-2 (1,3)-benzenacyclononaphan-8-one], the pIC50 at Human Factor XIa was 9.47. Moreover, the “Human Plasma APTT 1.5x” value in the data set with Pooled human plasma stood at 0.22 µM. In the case of `[2H]C([2H])([2H])n1ncc2c1-c1cc(F)c(F)c(c1)[C@@H](n1cnc(-c3c(-n4cc(Cl)nn4)ccc(Cl)c3F)cc1=O)CCC[C@@H](C)C(=O)N2` [Compound 3, (3S,7R)-3-(4-(3-chloro-6-(4-chloro-1H-1,2,3-triazol-1-yl)-2-fluorophenyl)-6-oxopyrimidin-1(6H)-yl)-2^4,2^5-difluoro-7-methyl-1^1-(methyl-d3)-1^1H-9-aza-1(5,4)-pyrazola-2(1,3)-benzenacyclononaphan-8-one], on Human Factor XIa, the pIC50 is 9.21. The “Human Plasma APTT 1.5x” value with Pooled human plasma is on record as 0.24 µM. In data set [1], this molecule came in with a bioavailability of 15.7%. `[2H]C([2H])([2H])n1ncc2c1-c1cc(F)c(F)c(c1)[C@@H](n1ccc(-c3cc(Cl)ccc3-n3cc(C(F)(F)F)nn3)c(Cl)c1=O)CCC[C@@H](C)C(=O)N2` [Compound 8, (3S,7R)-3-(4-(5-chloro-2-(4-(trifluoromethyl)-1H-1,2,3-triazol-1-yl)phenyl) -3-chloro-2-oxopyridin-1(2H)-yl)-2^4,2^5-difluoro-7-methyl-1^1-(methyl-d3)-1^1H-9-aza-1(5,4)-p yrazola-2(1,3)-benzenacyclononaphan-8-one]: the pIC50 at Human Factor XIa is 9.82. Turning to `C[C@@H]1CCC[C@H](n2cnc(-c3cc(Cl)ccc3-n3cc(Cl)nn3)cc2=O)c2cc(cc(F)c2F)-c2c(cnn2C(F)F)NC1=O` [Compound 14, (3S,7R)-3-(4-(5-chloro-2-(4-chloro-1H-1,2,3-triazol-1-yl)phenyl)-6-oxopyrimidin-1(6H)-yl)-2^4,2^5-difluoro-7-methyl-1^1-difluoromethyl-1^1H-9-aza-1(5,4)-pyrazol a-2(1,3)-benzenacyclononaphan-8-one], on Human Factor XIa, the pIC50 is 9.42.

In the case of `[2H]C([2H])([2H])n1ncc2c1-c1cc(F)c(F)c(c1)[C@@H](n1ncc(-c3c(-n4cc(C(F)(F)F)nn4)ccc(Cl)c3F)c(Cl)c1=O)CCC[C@@H](C)C(=O)N2` [Compound 6, (3S,7R)-3-(5-chloro-4-(3-chloro-2-fluoro-6-(4-(trifluoromethyl)-1H-1,2,3-triazol-1-yl)phenyl)-6-oxopyridazin-1(6H)-yl)-2^42^5-difluoro-7-methyl-1^1-(methyl-d3)-1^1H-9-aza-1(5,4)-pyrazola-2(1,3)-benzenacyclononaphan-8-one], the pIC50 at Human Factor XIa was 8.97. The “Human Plasma APTT 1.5x” value with Pooled human plasma amounted to 0.43 µM. The same molecule returned a bioavailability in data set [1] of 14.1%.

With `[2H]C([2H])([2H])n1ncc2c1-c1cc(F)c(F)c(c1)[C@@H](n1ccc(-c3cc(Cl)ccc3-n3cc(C(F)F)nn3)cc1=O)CCC[C@@H](C)C(=O)N2` [Compound 10, (3S,7R)-3-(4-(5-chloro-2-(4-(difluoromethyl)-1H-1,2,3-triazol-1-yl)phenyl)-2-oxopyridin-1(2H)-yl)-2^4,2^5-difluoro-7-methyl-1^1-(methyl-d3)-1^1H-9-aza-1(5,4)-pyrazola-2(1,3)-benzenacyclononaphan-8-one], at Human Factor XIa, the pIC50 is 9.11. The “Human Plasma APTT 1.5x” value with Pooled human plasma was 0.20 µM.

In the case of `[2H]C([2H])([2H])n1ncc2c1-c1cc(F)c(F)c(c1)[C@@H](n1ccc(-c3cc(Cl)ccc3-n3cc(C(F)(F)F)nn3)c(F)c1=O)CCC[C@@H](C)C(=O)N2` [Compound 9, (3S,7R)-3-(4-(5-chloro-2-(4-(trifluoromethyl)-1H-1,2,3-triazol-1-yl)phenyl)-3-fluoro-2-oxopyridin-1(2H)-yl)-2^4,2^5-difluoro-7-methyl-1^1-(methyl-d3)-1^1H-9-aza-1 (5,4)-pyrazola-2(1,3)-benzenacyclononaphan-8-one], the negative-log IC50 (pIC50) at Human Factor XIa is 9.52. `[2H]C([2H])([2H])n1ncc2c1-c1cc(F)c(F)c(c1)[C@@H](n1cnc(-c3cc(Cl)ccc3-n3cc(C(F)(F)F)nn3)cc1=O)CCC[C@@H](C)C(=O)N2` [Compound 2, (3R,7R)-3-(4-(5-chloro-2-(4-(trifluoromethyl)-1H-1,2,3-triazol-1-yl)phenyl) -6-oxopyrimidin-1(6H)-yl)-2^42^5-difluoro-7-methyl-1^1-(methyl-d3)-1^1H-9-aza-1(5,4)-pyrazola-2(1,3)-benzenacyclononaphan-8-one]: the pIC50 on Human Factor XIa was 9.44. The “Human Plasma APTT 1.5x” value with Pooled human plasma is reported as 0.24 µM.
